Consider 17 compounds from patent US9783532B2, “Molecules having certain pesticidal utilities, and intermediates, compositions, and processes related thereto” (Dow AgroSciences LLC, priority 2013, dated 2017).

Common to all, as to assay type: in vivo
The subject of data set [1] is Cabbage Looper (Trichoplusia ni) ("CL"). Briefly: Bioassay on cabbage looper (CL), 128-well diet tray assay. The note with it: 168 h, 50 μg/cm^2 on artificial diet, second instar CL larvae, 25° C., five to seven days, average of eight wells, read-out: CL % Control (or Mortality) rating. In a few lines:
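Second-instar larvae (one to five per well) placed on artificial diet surface-treated with 50 μg/cm^2 compound in 90:10 acetone-water, dried before infestation. Held 25 °C, 14:10 light-dark for five to seven days; percent mortality scored per well and averaged over eight wells.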

The subject of data set [2] is Yellow Fever Mosquito "YFM" (Aedes aegypti). Particulars: about 1 day-old larvae, 96-well plate, room temperature, 3 days, mortality. The protocol: Certain molecules disclosed in this document were tested against YFM using procedures described in the following paragraph. In the reporting of the results, the “YFM Rating Table” was used (See Table Section).
Master plates containing 400 μg of a molecule dissolved in 100 μL of dimethyl sulfoxide (DMSO) (equivalent to a 4000 ppm solution) are used. A master plate of assembled molecules contains 15 μL per well. To this plate, 135 μL of a 90:10 wateracetone mixture is added to each well. A robot (Biomek® NXP Laboratory Automation Workstation) is programmed to dispense 15 μL aspirations from the master plate into an empty 96-well shallow plate (“daughter” plate). There are 6 reps (“daughter” plates) created per master. The created daughter plates are then immediately infested with YFM larvae.
The day before plates are to be treated, mosquito eggs are placed in Millipore water containing liver powder to begin hatching (4 g. into 400 mL). After the daughter plates are created using the robot, they are infested with 220 μL of the liver powder/larval mosquito mixture (about 1 day-old larvae). After plates are infested with mosquito larvae, a non-evaporative lid is used to cover the plate to reduce drying. Plates are held at room temperature for 3 days prior to grading. After 3 days, each well is observed and scored based on mortality.

Data set [3] deals with Beet Armyworm (Spodoptera exigua) ("BAW"). The experiment in a line: Bioassay on beet armyworm (BAW), 128-well diet tray assay. The note with it: 168 h, 50 μg/cm^2 on artificial diet, second instar BAW larvae, 25° C., five to seven days, average of eight wells, read-out: BAW % Control (or Mortality) rating. In a few lines: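 Second-instar larvae (one to five per well) were placed on artificial diet surface-treated with 50 μg/cm^2 compound applied in 90:10 acetone-water and dried, eight wells per compound. Held at 25° C., 14:10 light-dark for five to seven days; percent mortality was scored per well and averaged over the eight wells.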

On to `CCc1cccc(C)c1N1C(=O)CS/C1=N\C(=O)NC(C)Cc1ccc(-c2ncn(-c3ccc(OC(F)(F)F)cc3)n2)cc1` (stereo not drawn) [P42, (Z)-1-(3-(2-ethyl-1-methylphenyl)-4-oxothiazolidin-2-ylidene)-3-(1-(4-(1-(4-(trifluoromethoxy)phenyl)-1H-1,2,4-triazol-3-yl)phenyl)propan-2-yl)urea], for which the mortality at 50 µg/cm2 in data set [1] and in data set [3] was 50 to 100% throughout. Moreover, in data set [2], the “YFM % Control (or Mortality) rating” value is recorded as “A (80-100)”.
`COc1ccc(N2C(=O)CS/C2=N\C(=O)NC(C)Cc2ccc(-c3ncn(-c4ccc(OC(F)(F)F)cc4)n3)cc2)c(C)c1` (stereo not drawn) [P45, (Z)-1-(3-(4-methoxy-2-methylphenyl)-4-oxothiazolidin-2-ylidene)-3-(1-(4-(1-(4-(trifluoromethoxy)phenyl)-1H-1,2,4-triazol-3-yl)phenyl)propan-2-yl)urea]: the mortality at 50 µg/cm2 in data set [1] and in data set [3] was 50 to 100% throughout. In data set [2], the “YFM % Control (or Mortality) rating” value was “A (80-100)”.
Take `COc1cc(C)c(N2C(=O)CS/C2=N\C(=O)NCCc2ccc(-c3ncn(-c4ccc(OC(F)(F)F)cc4)n3)cc2)c(C)c1` [P47, (Z)-1-(3-(4-methoxy-2,6-dimethylphenyl)-4-oxothiazolidin-2-ylidene)-3-(4-(1-(4-(trifluoromethoxy)phenyl)-1H-1,2,4-triazol-3-yl)phenethyl)urea]: the mortality at 50 µg/cm2 in data set [1] and in data set [3] was 50 to 100% each time. For the same compound, the “YFM % Control (or Mortality) rating” value in data set [2] is on record as “A (80-100)”.
With `CCc1ccc(C)cc1N1C(=O)CS/C1=N\C(=O)NCCc1ccc(-c2ncn(-c3ccc(OC(F)(F)F)cc3)n2)cc1` [P49, (Z)-1-(3-(2-ethyl-5-methylphenyl)-4-oxothiazolidin-2-ylidene)-3-(4-(1-(4-(trifluoromethoxy)phenyl)-1H-1,2,4-triazol-3-yl)phenethyl)urea], the mortality at 50 µg/cm2 in data set [1] and in data set [3] was 50 to 100% each time. Also, the “YFM % Control (or Mortality) rating” value in data set [2] is on record as “A (80-100)”.
For `CCc1cccc(C)c1N1C(=O)CS/C1=N\C(=O)NCCc1ccc(-c2ncn(-c3ccc(OC(F)(F)F)cc3)n2)cc1` [P50], the mortality at 50 µg/cm2 in data set [1] and in data set [3] was 50 to 100% in each case. Also, the “YFM % Control (or Mortality) rating” value in data set [2] is listed as “A (80-100)”.
Regarding `COc1ccc(C(C)C)c(N2C(=O)CS/C2=N\C(=O)NCCc2ccc(-c3ncn(-c4ccc(C(F)(F)F)cc4)n3)cc2)c1` [P53, (Z)-1-(3-(2-isopropyl-5-methoxyphenyl)-4-oxothiazolidin-2-ylidene)-3-(4-(4-(1-(4-trifluoromethyl)phenyl)-1H-1,2,4-triazol-3-yl)phenethyl)urea], the mortality at 50 µg/cm2 in data set [1] and in data set [3] was 50 to 100% each time. In addition, the “YFM % Control (or Mortality) rating” value in data set [2] is given as “A (80-100)”.
In the case of `Cc1ccc(C(C)C)c(N2C(=O)C(C)S/C2=N\C(=O)NCCc2ccc(-c3ncn(-c4ccc(OC(F)(F)F)cc4)n3)cc2)c1` (stereo not drawn) [P57, (Z)-1-(3-(2-isopropyl-5-methylphenyl)-5-methyl-4-oxothiazolidin-2-ylidene)-3-(4-(1-(4-(trifluoromethoxy)phenyl)-1H-1,2,4-triazol-3-yl)phenethyl)urea], the mortality at 50 µg/cm2 in data set [1] and in data set [3] was 50 to 100% throughout. The “YFM % Control (or Mortality) rating” value in data set [2] is recorded as “A (80-100)”.
As for `Cc1ccc(C(C)C)c(-n2c(C)cs/c2=N\C(=O)NCCc2ccc(-c3ncn(-c4ccc(OC(F)(F)F)cc4)n3)cc2)c1` [P65, (Z)-1-(3-(2-isopropyl-5-methylphenyl)-4-methylthiazol-2(3H)-ylidene)-3-(4-(1-(4-(trifluoromethoxy)phenyl)-1H-1,2,4-triazol-3-yl)phenethyl)urea], the mortality at 50 µg/cm2 in data set [1] and in data set [3] was 50 to 100% in each case. In addition, in data set [2], the “YFM % Control (or Mortality) rating” value is “A (80-100)”.
With `Cc1ccc(C(C)C)c(N2C(=O)CS/C2=N\C(=O)NC(C)C(C)c2ccc(-c3ncn(-c4ccc(OC(F)(F)F)cc4)n3)cc2)c1` (stereo not drawn) [P66, P353, (Z)-1-(3-(2-isopropyl-5-methylphenyl)-4-oxothiazolidin-2-ylidene)-3-(3-(4-(1-(4-(trifluoromethoxy)phenyl)-1H-1,2,4-triazol-3-yl)phenyl)butan-2-yl)urea], the mortality at 50 µg/cm2 in data set [1] and in data set [3] was 50 to 100% in each case. Further, the “YFM % Control (or Mortality) rating” value in data set [2] was “A (80-100)”.
On to `CCc1cccc(C)c1N1C(=O)CS/C1=N\C(=O)NCCCc1ccc(-c2ncn(-c3ccc(OC(F)(F)F)cc3)n2)cc1` [P101, (Z)-1-(3-(2-ethyl-6-methylphenyl)-4-oxothiazolidin-2-ylidene)-3-(3-(4-(1-(4-(trifluoromethoxy)phenyl)-1H-1,2,4-triazol-3-yl)phenyl)propyl)urea], for which the mortality at 50 µg/cm2 lay within 50 to 100% in data set [1] and 0 to 50% in data set [3]. Besides, the “YFM % Control (or Mortality) rating” value in data set [2] is reported as “D (No activity noticed in this bioassay)”.
`Cc1ccccc1N1C(=O)CS/C1=N\C(=O)NCCCCc1ccc(-c2ncn(-c3ccc(OC(F)(F)F)cc3)n2)cc1` [P144, (Z)-1-(4-oxo-3-(o-tolyl)thiazolidin-2-ylidene)-3-(4-(4-(1-(4-(trifluoromethoxy)phenyl)-1H-1,2,4-triazol-3-yl)phenyl)butyl)urea]: the mortality at 50 µg/cm2 in data set [1] and in data set [3] was 50 to 100% each time. Besides, the “YFM % Control (or Mortality) rating” value in data set [2] is “A (80-100)”.
For `CC(C)c1ccccc1N1C(=O)CS/C1=N\C(=O)NCCCCc1ccc(-c2ncn(-c3ccc(OC(F)(F)F)cc3)n2)cc1` [P146, P208, (Z)-1-(3-(2-isopropylphenyl)-4-oxothiazolidin-2-ylidene)-3-(4-(4-(1-(4-(trifluoromethoxy)phenyl)-1H-1,2,4-triazol-3-yl)phenyl)butyl)urea], the mortality at 50 µg/cm2 in data set [1] and in data set [3] was 50 to 100% throughout. In addition, in data set [2], the “YFM % Control (or Mortality) rating” value was “A (80-100)”.
Turning to `CCCc1ccc(C)cc1N1C(=O)CS/C1=N\C(=O)NCCCCc1ccc(-c2ncn(-c3ccc(OC(F)(F)F)cc3)n2)cc1` [P151, P842, (Z)-1-(3-(5-methyl-2-propylphenyl)-4-oxothiazolidin-2-ylidene)-3-(4-(4-(1-(4-(trifluoromethoxy)phenyl)-1H-1,2,4-triazol-3-yl)phenyl)butyl)urea], the mortality at 50 µg/cm2 in data set [1] and in data set [3] was 50 to 100% throughout. Also, in data set [2], the “YFM % Control (or Mortality) rating” value is recorded as “A (80-100)”.
With `Cc1cccc(C)c1N1C(=O)CS/C1=N\C(=O)NCCCCc1ccc(-c2ncn(-c3ccc(OC(F)(F)F)cc3)n2)cc1` [P152, P1481, (Z)-1-(3-(2,6-dimethylphenyl)-4-oxothiazolidin-2-ylidene)-3-(4-(4-(1-(4-(trifluoromethoxy)phenyl)-1H-1,2,4-triazol-3-yl)phenyl)butyl)urea], the mortality at 50 µg/cm2 in data set [1] was 50 to 100%; in data set [3] it was 0%. In data set [2], the “YFM % Control (or Mortality) rating” value is “A (80-100)”.
On to `CCc1cccc(C)c1N1C(=O)CS/C1=N\C(=O)NCCCCc1ccc(-c2ncn(-c3ccc(OC(F)(F)F)cc3)n2)cc1` [P153, (Z)-1-(3-(2-ethyl-6-methylphenyl)-4-oxothiazolidin-2-ylidene)-3-(4-(4-(1-(4-(trifluoromethoxy)phenyl)-1H-1,2,4-triazol-3-yl)phenyl)butyl)urea], for which the mortality at 50 µg/cm2 in data set [1] is 50 to 100%; in data set [3] it was 0%. The “YFM % Control (or Mortality) rating” value in data set [2] is reported as “D (No activity noticed in this bioassay)”.
As to `Cc1ccc(N2C(=O)CS/C2=N\C(=O)NCCCCc2ccc(-c3ncn(-c4ccc(OC(F)(F)F)cc4)n3)cc2)c(C(C)C)c1` [P154, (Z)-1-(3-(2-isopropyl-4-methylphenyl)-4-oxothiazolidin-2-ylidene)-3-(4-(4-(1-(4-(trifluoromethoxy)phenyl)-1H-1,2,4-triazol-3-yl)phenyl)butyl)urea], the mortality at 50 µg/cm2 in data set [1] and in data set [3] was 50 to 100% throughout. Also, the “YFM % Control (or Mortality) rating” value in data set [2] is on record as “B (More than 0-Less than 80)”.
In the case of `CC(C)c1cc(F)ccc1N1C(=O)CS/C1=N\C(=O)NCCCCc1ccc(-c2ncn(-c3ccc(OC(F)(F)F)cc3)n2)cc1` [P155. P1162, (Z)-1-(3-(4-fluoro-2-isopropylphenyl)-4-oxothiazolidin-2-ylidene)-3-(4-(4-(1-(4-(trifluoromethoxy)phenyl)-1H-1,2,4-triazol-3-yl)phenyl)butyl)urea], the mortality at 50 µg/cm2 in data set [1] and in data set [3] was 50 to 100% throughout. The “YFM % Control (or Mortality) rating” value in data set [2] is “A (80-100)”.

One may read the mortality as the percentage killed.
